Test results as given in patent US8802597B2, “Herbicidal pyrimidines” (E I du Pont de Nemours and Company, priority 2003, dated 2014).
Read-outs that look alike come from different tables or passages of the source.

Legend:
Assay type in all cases: in vivo
[1] = system: Surinam grass (Brachiaria decumbens); experiment: Test B pre/postemergence; settings: Urochloa decumbens; for pest or weed control at 125 g/ha: 125 g ai/ha; for pest or weed control at 500 g/ha: 500 g ai/ha
Method in brief: (§1)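 Visual injury scored 0 (no effect) to 100 (complete control) versus untreated controls after 13 to 15 days in greenhouse. Treatments were pre- or postemergence sprays of surfactant-containing solvent formulations; postemergence plants at 1- to 4-leaf stage, 2 to 18 cm.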

[2] = system: barnyardgrass (Echinochloa crus-galli); experiment: Test B pre/postemergence; settings: Echinochloa crus-galli; for pest or weed control at 125 g/ha: 125 g ai/ha; for pest or weed control at 500 g/ha: 500 g ai/ha
Method in brief: as §1

[3] = system: cocklebur (Xanthium strumarium); experiment: Test B pre/postemergence; settings: Xanthium strumarium; for pest or weed control at 125 g/ha: 125 g ai/ha; for pest or weed control at 500 g/ha: 500 g ai/ha
Method in brief: as §1

corn (Zea mays) = experiment: Test B pre/postemergence; settings: Zea mays
Method in brief: as §1

[4] = system: crabgrass (Digitaria sanguinalis); experiment: Test B pre/postemergence; settings: Digitaria sanguinalis; for pest or weed control at 125 g/ha: 125 g ai/ha; for pest or weed control at 500 g/ha: 500 g ai/ha
Method in brief: as §1

[5] = system: giant foxtail (Setaria faberii); experiment: Test B pre/postemergence; settings: Setaria faberi; for pest or weed control at 125 g/ha: 125 g ai/ha; for pest or weed control at 500 g/ha: 500 g ai/ha
Method in brief: as §1

[6] = system: lambsquarters (Chenopodium album); experiment: Test B pre/postemergence; settings: Chenopodium album; for pest or weed control at 125 g/ha: 125 g ai/ha; for pest or weed control at 500 g/ha: 500 g ai/ha
Method in brief: as §1

[7] = system: morningglory (Ipomoea coccinea); experiment: Test B pre/postemergence; settings: Ipomoea; for pest or weed control at 125 g/ha: 125 g ai/ha; for pest or weed control at 500 g/ha: 500 g ai/ha
Method in brief: as §1

[8] = system: pigweed (Amaranthus retroflexus); experiment: Test B pre/postemergence; settings: Amaranthus retroflexus; for pest or weed control at 125 g/ha: 125 g ai/ha; for pest or weed control at 500 g/ha: 500 g ai/ha
Method in brief: as §1

[9] = system: velvetleaf (Abutilon theophrasti); experiment: Test B pre/postemergence; settings: Abutilon theophrasti; for pest or weed control at 125 g/ha: 125 g ai/ha; for pest or weed control at 500 g/ha: 500 g ai/ha
Method in brief: as §1

[10] = system: wheat (Triticum aestivum); experiment: Test B pre/postemergence; settings: Triticum aestivum; for plant injury at 125 g/ha: 125 g ai/ha; for plant injury at 500 g/ha: 500 g ai/ha
Method in brief: as §1

[11] = system: blackgrass (Alopecurus myosuroides); experiment: Test B postemergence; settings: Alopecurus myosuroides, post-emergence
Method in brief: as §1

wild oat (Avena fatua) = experiment: Test B postemergence; settings: Avena fatua, post-emergence
Method in brief: as §1

[12] = system: barnyardgrass (Echinochloa crus-galli); experiment: Test B flooded paddy test; settings: Echinochloa crus-galli, Flood, 1000 g ai/ha; scale 0 (no effect) to 100 (complete control); read-out: Plant response rating, Barnyardgrass
Method in brief: (§2)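 Visual injury scoring (0 = no effect, 100 = complete control) versus controls made 13 to 15 days after treatment in the greenhouse. Test species were grown in flooded paddy to the 2-leaf stage: rice, barnyardgrass, umbrella sedge, duck salad.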

[13] = system: duck salad (Heteranthera limosa); experiment: Test B flooded paddy test; settings: Heteranthera limosa, Flood, 1000 g ai/ha; scale 0 to 100; read-out: Plant response rating, Ducksalad
Method in brief: as §2

rice (Oryza sativa) = experiment: Test B flooded paddy test; settings: Oryza sativa, Flood, 1000 g ai/ha; scale 0 to 100; read-out: Plant response rating, Rice
Method in brief: as §2

[14] = system: umbrella sedge (Cyperus difformis); experiment: Test B flooded paddy test; settings: Cyperus difformis, Flood, 1000 g ai/ha; scale 0 to 100; read-out: Plant response rating, Sedge, Umbrella
Method in brief: as §2

With `COC(=O)c1nc(C2CC2)nc(N)c1Br` [Compound 2, methyl 6-amino-5-bromo-2-cyclopropyl-4-pyrimidinecarboxylate] the pest or weed control at 125 g/ha ([1]; post-emergence, Postemergence, scale 0 to 100 (0 no effect, 100 complete control), read-out: Surinam Grass plant response rating) was 90%, the pest or weed control at 500 g/ha ([1]; post-emergence, Postemergence, scale 0 to 100, read-out: Plant response rating, Surinam Grass) was 90% and the pest or weed control at 125 g/ha ([1]; pre-emergence, Preemergence, scale 0 to 100 (0 no effect, 100 complete control), read-out: Plant response rating, Surinam Grass) was 40%. For the same compound, the pest or weed control at 500 g/ha ([1]; pre-emergence, Preemergence, scale 0 to 100 (0 no effect, 100 complete control), read-out: Surinam Grass plant response rating) was 90%, the pest or weed control at 125 g/ha ([2]; post-emergence, Postemergence, scale 0 to 100 (0 no effect, 100 complete control), read-out: Barnyardgrass plant response rating) was 90% and the pest or weed control at 500 g/ha ([2]; post-emergence, Postemergence, scale 0 to 100, read-out: Plant response rating, Barnyardgrass) was 90%. For the same compound, the pest or weed control at 125 g/ha ([2]; pre-emergence, Preemergence, scale 0 to 100 (0 no effect, 100 complete control), read-out: Plant response rating, Barnyardgrass) was 70%, the pest or weed control at 500 g/ha ([2]; pre-emergence, Preemergence, scale 0 to 100 (0 no effect, 100 complete control), read-out: Barnyardgrass plant response rating) was 90% and the pest or weed control at 125 g/ha ([3]; post-emergence, Postemergence, scale 0 to 100 (0 no effect, 100 complete control), read-out: Cocklebur plant response rating) was 100%. For the same compound, the pest or weed control at 500 g/ha ([3]; post-emergence, Postemergence, scale 0 to 100, read-out: Plant response rating, Cocklebur) was 100%, the pest or weed control at 125 g/ha ([3]; pre-emergence, Preemergence, scale 0 to 100 (0 no effect, 100 complete control), read-out: Plant response rating, Cocklebur) was 90% and the pest or weed control at 500 g/ha ([3]; pre-emergence, Preemergence, scale 0 to 100 (0 no effect, 100 complete control), read-out: Cocklebur plant response rating) was 100%. It also gave a plant injury at 125 g/ha (corn (Zea mays); post-emergence, Postemergence, 125 g ai/ha, scale 0 to 100 (0 no effect, 100 complete control), read-out: Corn plant response rating) of 20%, a Corn plant response rating (crop injury, 0 = no effect, 100 = complete kill) at 500 g/ha (corn (Zea mays); post-emergence, Postemergence, 500 g ai/ha, scale 0 to 100) of 80% and a Corn plant response rating (crop injury, 0 = no effect, 100 = complete kill) at 125 g/ha (corn (Zea mays); pre-emergence, Preemergence, 125 g ai/ha, scale 0 to 100 (0 no effect, 100 complete control)) of 0%. For the same compound, the plant injury at 500 g/ha (corn (Zea mays); pre-emergence, Preemergence, 500 g ai/ha, scale 0 to 100 (0 no effect, 100 complete control), read-out: Corn plant response rating) was 80%, the pest or weed control at 125 g/ha ([4]; post-emergence, Postemergence, scale 0 to 100 (0 no effect, 100 complete control), read-out: Crabgrass plant response rating) was 90% and the pest or weed control at 500 g/ha ([4]; post-emergence, Postemergence, scale 0 to 100, read-out: Plant response rating, Crabgrass) was 90%. For the same compound, the pest or weed control at 125 g/ha ([4]; pre-emergence, Preemergence, scale 0 to 100 (0 no effect, 100 complete control), read-out: Plant response rating, Crabgrass) was 90%, the pest or weed control at 500 g/ha ([4]; pre-emergence, Preemergence, scale 0 to 100 (0 no effect, 100 complete control), read-out: Crabgrass plant response rating) was 90% and the pest or weed control at 125 g/ha ([5]; post-emergence, Postemergence, scale 0 to 100 (0 no effect, 100 complete control), read-out: Foxtail, Giant plant response rating) was 70%. For the same compound, the pest or weed control at 500 g/ha ([5]; post-emergence, Postemergence, scale 0 to 100, read-out: Plant response rating, Foxtail, Giant) was 80%, the pest or weed control at 125 g/ha ([5]; pre-emergence, Preemergence, scale 0 to 100 (0 no effect, 100 complete control), read-out: Plant response rating, Foxtail, Giant) was 30% and the pest or weed control at 500 g/ha ([5]; pre-emergence, Preemergence, scale 0 to 100 (0 no effect, 100 complete control), read-out: Foxtail, Giant plant response rating) was 90%. For the same compound, the pest or weed control at 125 g/ha ([6]; post-emergence, Postemergence, scale 0 to 100 (0 no effect, 100 complete control), read-out: Lambsquarters plant response rating) was 100%, the pest or weed control at 500 g/ha ([6]; post-emergence, Postemergence, scale 0 to 100, read-out: Plant response rating, Lambsquarters) was 100% and the pest or weed control at 125 g/ha ([6]; pre-emergence, Preemergence, scale 0 to 100 (0 no effect, 100 complete control), read-out: Plant response rating, Lambsquarters) was 100%. It also gave a pest or weed control at 500 g/ha ([6]; pre-emergence, Preemergence, scale 0 to 100 (0 no effect, 100 complete control), read-out: Lambsquarters plant response rating) of 100%, a pest or weed control at 125 g/ha ([7]; post-emergence, Postemergence, scale 0 to 100 (0 no effect, 100 complete control), read-out: Morningglory plant response rating) of 100% and a pest or weed control at 500 g/ha ([7]; post-emergence, Postemergence, scale 0 to 100, read-out: Plant response rating, Morningglory) of 100%. The pest or weed control at 125 g/ha ([7]; pre-emergence, Preemergence, scale 0 to 100 (0 no effect, 100 complete control), read-out: Plant response rating, Morningglory) was 100%, the pest or weed control at 500 g/ha ([7]; pre-emergence, Preemergence, scale 0 to 100 (0 no effect, 100 complete control), read-out: Morningglory plant response rating) was 100% and the pest or weed control at 125 g/ha ([8]; post-emergence, Postemergence, scale 0 to 100 (0 no effect, 100 complete control), read-out: Pigweed plant response rating) was 100%. The pest or weed control at 500 g/ha ([8]; post-emergence, Postemergence, scale 0 to 100, read-out: Plant response rating, Pigweed) was 100%, the pest or weed control at 125 g/ha ([8]; pre-emergence, Preemergence, scale 0 to 100 (0 no effect, 100 complete control), read-out: Plant response rating, Pigweed) was 90% and the pest or weed control at 500 g/ha ([8]; pre-emergence, Preemergence, scale 0 to 100 (0 no effect, 100 complete control), read-out: Pigweed plant response rating) was 100%. For the same compound, the pest or weed control at 125 g/ha ([9]; post-emergence, Postemergence, scale 0 to 100 (0 no effect, 100 complete control), read-out: Velvetleaf plant response rating) was 60%, the pest or weed control at 500 g/ha ([9]; post-emergence, Postemergence, scale 0 to 100, read-out: Plant response rating, Velvetleaf) was 100% and the pest or weed control at 125 g/ha ([9]; pre-emergence, Preemergence, scale 0 to 100 (0 no effect, 100 complete control), read-out: Plant response rating, Velvetleaf) was 90%. The pest or weed control at 500 g/ha ([9]; pre-emergence, Preemergence, scale 0 to 100 (0 no effect, 100 complete control), read-out: Velvetleaf plant response rating) was 100%, the plant injury at 125 g/ha ([10]; post-emergence, Postemergence, scale 0 to 100 (0 no effect, 100 complete control), read-out: Wheat plant response rating) was 40% and the plant injury at 500 g/ha ([10]; post-emergence, Postemergence, scale 0 to 100, read-out: Plant response rating, Wheat) was 70%. The plant injury at 125 g/ha ([10]; pre-emergence, Preemergence, scale 0 to 100 (0 no effect, 100 complete control), read-out: Plant response rating, Wheat) was 60%, the plant injury at 500 g/ha ([10]; pre-emergence, Preemergence, scale 0 to 100 (0 no effect, 100 complete control), read-out: Wheat plant response rating) was 70% and the pest or weed control at 125 g/ha ([11]; 125 g ai/ha, scale 0 to 100 (0 no effect, 100 complete control), read-out: Blackgrass plant response rating) was 50%. It also gave a pest or weed control at 500 g/ha ([11]; 500 g ai/ha, scale 0 to 100, read-out: Plant response rating, Blackgrass) of 80%, a pest or weed control at 125 g/ha (wild oat (Avena fatua); 125 g ai/ha, scale 0 to 100 (0 no effect, 100 complete control), read-out: Oat, Wild plant response rating) of 40% and a pest or weed control at 500 g/ha (wild oat (Avena fatua); 500 g ai/ha, scale 0 to 100, read-out: Plant response rating, Oat, Wild) of 70%. For the same compound, the pest or weed control at 1000 g/ha [12] was 90%, the pest or weed control at 1000 g/ha [13] was 90% and the plant injury at 1000 g/ha (rice (Oryza sativa)) was 60%. For the same compound, the pest or weed control at 1000 g/ha [14] was 90%.
